# Test results taken from paper PMC4764975, “Probing the enzyme kinetics, allosteric modulation and activation of α1- and α2-subunit-containing AMP-activated protein kinase (AMPK) heterotrimeric complexes by pharmacological and physiological activators” (Biochemical Journal, 2016).
# Like-named read-outs stand apart in the source and are kept apart here.
# Tests used:
# BAP-tagged AMPK α1β1γ1 = target: T1, BAP-tagged AMPK α1β1γ1 (Homo sapiens, UniProt P54619+Q13131+Q9Y478); experiment: SPR direct binding (Biacore)
# T1 construct: Recombinant full-length AMPK heterotrimeric complexes α1β1γ1, α1β2γ1, α1β2γ3, α2β1γ1, α2β2γ1 and α2β2γ3 were cloned; 6X-His (N); AviTag (BAP); made in house; host or cells: E. coli (co-expressed with BirA)
# Procedure: (§1) SPR experiments were performed on a Biacore™ 3000 instrument (GE Healthcare). BAP-tagged AMPK isoform (α1β1γ1, α1β2γ1, α2β2γ1, α2β2γ3) was captured on to a streptavidin sensor chip to levels ranging from 4000 to 6000 RU. […] Binding responses were processed using Scrubber 2 (BioLogic Software Pty Ltd) to zero, x-align, double reference and corrected for excluded volume effect of DMSO in the data. […] The compound was injected at a flow rate of 50 μl/min with total contact time of 120 s and dissociation time of 600 s. Rate parameters (kon, koff) and corresponding dissociation constant(KD=koff/kon) were determined by globally fitting all of the experimental data to a simple 1:1 interaction model using Biaeval software (GE Healthcare). To determine nt binding, 10 concentrations with 2-fold dilutions were tested in duplicate. The highest concentration tested was 2 mM. The compound was injected at a flow rate of 50 μl/min with total contact time of 120 s and dissociation time of 300 s. Equilibrium dissociation constant (KD) was determined using a steady-state affinity algorithm available within Scrubber.
# (§2) We then compared the binding of nts (AMP, ADP and ATP) to α1β1γ1, α1β2γ1, α2β2γ1 and α2β2γ3 isoforms in the presence and absence of Mg^2+ and Stau, using SPR technique. […]
# BAP-tagged AMPK α2β2γ1 = target: T2, BAP-tagged AMPK α2β2γ1 (Homo sapiens, UniProt O43741+P54619+P54646); experiment: SPR direct binding (Biacore)
# T2 construct: Recombinant full-length AMPK heterotrimeric complexes α1β1γ1, α1β2γ1, α1β2γ3, α2β1γ1, α2β2γ1 and α2β2γ3 were cloned into a tricistronic vector system; 6X-His (N); made in house; host or cells: E. coli BL21-CodonPlus (DE3)-RIPL, co-expressed with BirA
# Procedure: as §1, §2
# BAP-tagged AMPK α1β2γ1 = target: T3, BAP-tagged AMPK α1β2γ1 (Homo sapiens, UniProt O43741+P54619+Q13131); experiment: SPR direct binding (Biacore)
# T3 construct: Recombinant full-length AMPK heterotrimeric complexes α1β1γ1, α1β2γ1, α1β2γ3, α2β1γ1, α2β2γ1 and α2β2γ3 were cloned into a tricistronic vector system; 6X-His (N); made in house; host or cells: E. coli BL21-CodonPlus (DE3)-RIPL, co-expressed with BirA
# Procedure: as §1
# (§3) We then compared the binding of nts (AMP, ADP and ATP) to α1β1γ1, α1β2γ1, α2β2γ1 and α2β2γ3 isoforms in the presence and absence of Mg^2+ and Stau, using SPR technique.
# BAP-tagged AMPK α2β2γ3 = target: T4, BAP-tagged AMPK α2β2γ3 (Homo sapiens, UniProt O43741+P54646+Q9UGI9); experiment: SPR direct binding (Biacore)
# T4 construct: Recombinant full-length AMPK heterotrimeric complexes α1β1γ1, α1β2γ1, α1β2γ3, α2β1γ1, α2β2γ1 and α2β2γ3 were cloned into a tricistronic vector system; 6X-His (N); made in house; host or cells: E. coli BL21-CodonPlus (DE3)-RIPL, co-expressed with BirA
# Procedure: as §1, §3
# AMPK α1β1γ1 = target: T5, AMPK α1β1γ1 (Homo sapiens, UniProt P54619+Q13131+Q9Y478); experiment: Steady-state kinetics, radiometric SAMS assay; format: biochemical; settings: absence of AMP, SAMS fixed at ~10-fold Km, read-out: Km ATP
# T5 construct: Recombinant full-length AMPK heterotrimeric complexes α1β1γ1, α1β2γ1, α1β2γ3, α2β1γ1, α2β2γ1 and α2β2γ3 were cloned; 6X-His (N); made in house; host or cells: E. coli BL21-CodonPlus (DE3)-RIPL
# Procedure: (§4) The kinase activity of pAMPK was measured via AMPK-mediated incorporation of ^33phosphate from [^33P]ATP into the synthetic peptide called SAMS [31] using the radiometric assay as described before. […] Assay linearity was ensured by determining that <30% substrate was depleted for all concentrations tested. The Km values were obtained in the absence of AMP in the reaction. Data were fitted by non-linear regression to the Michaelis–Menten equation using GraphPad prism to obtain the kinetic parameters. The specific radioactivity of each isoform was determined at saturating concentrations of each substrate.
# AMPK α1β2γ1 = target: T6, AMPK α1β2γ1 (Homo sapiens, UniProt O43741+P54619+Q13131); experiment: Steady-state kinetics, radiometric SAMS assay; format: biochemical; settings: absence of AMP, SAMS fixed at ~10-fold Km, read-out: Km ATP
# T6 construct: Recombinant full-length AMPK heterotrimeric complexes α1β1γ1, α1β2γ1, α1β2γ3, α2β1γ1, α2β2γ1 and α2β2γ3 were cloned; 6X-His (N); made in house; host or cells: E. coli BL21-CodonPlus (DE3)-RIPL
# Procedure: as §4
# AMPK α1β2γ3 [1] = target: T7, AMPK α1β2γ3 (Homo sapiens, UniProt O43741+Q13131+Q9UGI9); experiment: Steady-state kinetics, radiometric SAMS assay; format: biochemical; settings: absence of AMP, SAMS fixed at ~10-fold Km, read-out: Km ATP
# T7 construct: Recombinant full-length AMPK heterotrimeric complexes α1β1γ1, α1β2γ1, α1β2γ3, α2β1γ1, α2β2γ1 and α2β2γ3 were cloned; 6X-His (N); made in house; host or cells: E. coli BL21-CodonPlus (DE3)-RIPL
# Procedure: as §4
# AMPK α2β1γ1 [2] = target: T8, AMPK α2β1γ1 (Homo sapiens, UniProt P54619+P54646+Q9Y478); experiment: Steady-state kinetics, radiometric SAMS assay; format: biochemical; settings: absence of AMP, SAMS fixed at ~10-fold Km, read-out: Km ATP
# T8 construct: Recombinant full-length AMPK heterotrimeric complexes α1β1γ1, α1β2γ1, α1β2γ3, α2β1γ1, α2β2γ1 and α2β2γ3 were cloned; 6X-His (N); made in house; host or cells: E. coli BL21-CodonPlus (DE3)-RIPL
# Procedure: as §4
# AMPK α2β2γ1 [3] = target: T9, AMPK α2β2γ1 (Homo sapiens, UniProt O43741+P54619+P54646); experiment: Steady-state kinetics, radiometric SAMS assay; format: biochemical; settings: absence of AMP, SAMS fixed at ~10-fold Km, read-out: Km ATP
# T9 construct: Recombinant full-length AMPK heterotrimeric complexes α1β1γ1, α1β2γ1, α1β2γ3, α2β1γ1, α2β2γ1 and α2β2γ3 were cloned; 6X-His (N); made in house; host or cells: E. coli BL21-CodonPlus (DE3)-RIPL
# Procedure: as §4
# AMPK α2β2γ3 [4] = target: T10, AMPK α2β2γ3 (Homo sapiens, UniProt O43741+P54646+Q9UGI9); experiment: Steady-state kinetics, radiometric SAMS assay; format: biochemical; settings: absence of AMP, SAMS fixed at ~10-fold Km, read-out: Km ATP
# T10 construct: Recombinant full-length AMPK heterotrimeric complexes α1β1γ1, α1β2γ1, α1β2γ3, α2β1γ1, α2β2γ1 and α2β2γ3 were cloned; 6X-His (N); made in house; host or cells: E. coli BL21-CodonPlus (DE3)-RIPL
# Procedure: as §4
# full-length, pAMPK = target: full-length, pAMPK; parameters: method as in PMID 21399626; settings: presence of Mg2+, cited from earlier work
# [5] = target: T11, AMPK α1-kinase domain (α1-KD) (Homo sapiens, UniProt Q13131); experiment: Phosphatase (PP2Aα) sensitivity, pThr172/174 dephosphorylation; format: biochemical; settings: PP2Aα concentration for half-maximal dephosphorylation, absence of activator, read-out: PP2Aα sensitivity dEC50
# T11 construct: AMPK α1-kinase domain (α1-KD; residues 18–293); 6X-His (N); made in house; host or cells: E. coli BL21-CodonPlus (DE3)-RIPL (pET28a)
# Procedure: (§5) Test compound was previously diluted in half-log increments, starting at 40 μM in 100% DMSO, diluted 10-fold in assay buffer and dispensed into a microtitre plate. After 15 min at room temperature, phosphatase was added to the mixture and the reaction was allowed to proceed for 60 min at room temperature. Reactions were quenched by the addition of okadaic acid, and transferred to PVDF membrane using the slot-blot apparatus and subjected to immunoblotting. Phosphatase sensitivity was similarly assessed by subjecting pAMPK to a phosphatase (PP2Aα) treatment using various concentrations and incubation times. The concentration of phosphatase was expressed as nmol of PP2Aα per minute per nmol of pAMPK in the reaction.
# (§6) The membrane was blocked with Western Blot Blocking Buffer Reagent (Li-Cor) for 3–4 h at room temperature. The blot was probed using a rabbit α-pThr^172/174-specific antibody (Cell Signaling 40H9) at 1:500 dilution for 2 h and washed three times using 1 × PBS/0.1% Tween 20 (42°C pre-warmed wash buffer). Following the wash step, goat anti-rabbit 800CW (Rockland) at 1:10000 dilution was used as a secondary antibody. Blots were visualized using the Li-Cor Odyssey infrared imaging system and signal quantification was performed using the Odyssey software. The pEC50 values (estimated concentration of activator required for half-maximal protection of pThr^172/174 from PP2α) were calculated using GraphPad Prism software.
# (§7) We then examined the sensitivity of phospho-α-Thr^172/174 (pThr^172/174) for dephosphorylation by phosphatase (PP2Aα) in the absence of allosteric modulators. The extent of dephosphorylation was measured using an antibody specific to α-pThr^172/174 as described in ‘Experimental’ section. […] The presence of the regulatory subunits (β and γ) leads to increased protection of pAMPK from dephosphorylation compared with the kinase domains alone (Figure 6). […] The dEC50 values for α2-containing isoforms were 40, 57 and 41 nM for α2β1γ1, α2β2γ1 and α2β2γ3 respectively; 13- to 18-fold right-shifted compared with that for isolated α2-kinase domain (Figure 6).
# (§8) Figure 6 Phosphatase (PP2Aα) sensitivity of AMPK isoforms Effect of phosphatase (PP2Aα) on pThr^172/174 dephosphorylation of AMPK isoforms in the absence of activators is shown. Data are mean (n=2), and curves were generated using best-fit values.
# AMPK α1β2γ3 [6] = target: T7, AMPK α1β2γ3; experiment: as above; format: biochemical; settings: PP2Aα concentration for half-maximal dephosphorylation, absence of activator, read-out: PP2Aα sensitivity dEC50
# Procedure: as §5, §6, §7, §8
# [7] = target: T12, AMPK α2-kinase domain (α2-KD) (Homo sapiens, UniProt P54646); experiment: as above; format: biochemical; settings: PP2Aα concentration for half-maximal dephosphorylation, absence of activator, read-out: PP2Aα sensitivity dEC50
# T12 construct: α2-kinase domain (α2-KD; residues 7–282); 6X-His (N); made in house; host or cells: E. coli BL21-CodonPlus (DE3)-RIPL (pET28a)
# Procedure: as §5, §6, §7, §8
# AMPK α2β1γ1 [8] = target: T8, AMPK α2β1γ1; experiment: as above; format: biochemical; settings: PP2Aα concentration for half-maximal dephosphorylation, absence of activator, read-out: PP2Aα sensitivity dEC50
# Procedure: as §5, §6, §7, §8
# AMPK α2β2γ1 [9] = target: T9, AMPK α2β2γ1; experiment: as above; format: biochemical; settings: PP2Aα concentration for half-maximal dephosphorylation, absence of activator, read-out: PP2Aα sensitivity dEC50
# Procedure: as §5, §6, §7, §8
# AMPK α2β2γ3 [10] = target: T10, AMPK α2β2γ3; experiment: as above; format: biochemical; settings: PP2Aα concentration for half-maximal dephosphorylation, absence of activator, read-out: PP2Aα sensitivity dEC50
# Procedure: as §5, §6, §7, §8
# [11] = presence of Mg2+ and 25 nM Stau, cell spans KD1 and KD2, read-out: KD (single measurable binding affinity)
# [12] = presence of Mg2+, cell spans KD1 and KD2, read-out: KD (single measurable binding affinity)
# [13] = tighter site, absence of Mg2+ and Stau, read-out: KD1
# [14] = weaker site, absence of Mg2+ and Stau, read-out: KD2
# T1 sequence (Q13131 whole entry): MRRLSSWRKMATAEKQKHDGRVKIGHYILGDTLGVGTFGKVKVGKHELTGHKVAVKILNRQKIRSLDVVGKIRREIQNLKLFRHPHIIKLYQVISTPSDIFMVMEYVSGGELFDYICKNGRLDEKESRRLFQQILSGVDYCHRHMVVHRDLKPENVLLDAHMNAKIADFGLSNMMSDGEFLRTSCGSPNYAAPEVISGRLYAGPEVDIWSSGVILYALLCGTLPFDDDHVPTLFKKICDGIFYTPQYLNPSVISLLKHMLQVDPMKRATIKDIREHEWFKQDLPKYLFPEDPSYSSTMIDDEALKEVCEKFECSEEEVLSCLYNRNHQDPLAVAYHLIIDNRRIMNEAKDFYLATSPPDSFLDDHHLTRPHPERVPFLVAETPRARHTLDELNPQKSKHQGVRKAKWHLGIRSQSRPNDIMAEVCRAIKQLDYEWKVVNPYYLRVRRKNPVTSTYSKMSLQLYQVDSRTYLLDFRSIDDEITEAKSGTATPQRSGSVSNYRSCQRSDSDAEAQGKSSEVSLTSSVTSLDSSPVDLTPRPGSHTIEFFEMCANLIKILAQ
# T1 sequence (Q9Y478 whole entry): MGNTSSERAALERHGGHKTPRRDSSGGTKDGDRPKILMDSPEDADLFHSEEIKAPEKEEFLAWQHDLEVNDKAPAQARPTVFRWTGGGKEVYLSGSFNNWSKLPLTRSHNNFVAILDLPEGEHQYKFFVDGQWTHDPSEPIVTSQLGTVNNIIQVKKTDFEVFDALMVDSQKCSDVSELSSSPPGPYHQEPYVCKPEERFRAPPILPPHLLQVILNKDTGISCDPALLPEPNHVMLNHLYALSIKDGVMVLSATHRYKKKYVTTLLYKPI
# T1 sequence (P54619 whole entry): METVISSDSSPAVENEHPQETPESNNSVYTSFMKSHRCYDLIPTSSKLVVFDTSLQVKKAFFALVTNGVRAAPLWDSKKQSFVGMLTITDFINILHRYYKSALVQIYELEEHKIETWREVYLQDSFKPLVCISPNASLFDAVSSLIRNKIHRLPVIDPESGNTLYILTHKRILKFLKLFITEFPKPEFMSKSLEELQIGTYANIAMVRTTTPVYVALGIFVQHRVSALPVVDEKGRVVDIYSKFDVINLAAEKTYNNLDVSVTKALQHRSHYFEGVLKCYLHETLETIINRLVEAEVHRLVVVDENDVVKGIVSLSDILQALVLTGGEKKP
# T3 sequence (Q13131 whole entry): as the sequence (Q13131 whole entry) above
# T3 sequence (O43741 whole entry): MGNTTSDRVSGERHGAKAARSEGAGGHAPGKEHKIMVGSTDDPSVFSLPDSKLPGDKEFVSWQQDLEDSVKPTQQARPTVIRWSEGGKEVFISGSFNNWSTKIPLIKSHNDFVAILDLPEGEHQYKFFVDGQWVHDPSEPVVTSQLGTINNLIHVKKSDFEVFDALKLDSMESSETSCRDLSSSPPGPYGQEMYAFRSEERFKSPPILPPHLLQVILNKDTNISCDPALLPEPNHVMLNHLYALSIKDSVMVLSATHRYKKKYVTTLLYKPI
# T3 sequence (P54619 whole entry): as the sequence (P54619 whole entry) above
# T2 sequence (P54646 whole entry): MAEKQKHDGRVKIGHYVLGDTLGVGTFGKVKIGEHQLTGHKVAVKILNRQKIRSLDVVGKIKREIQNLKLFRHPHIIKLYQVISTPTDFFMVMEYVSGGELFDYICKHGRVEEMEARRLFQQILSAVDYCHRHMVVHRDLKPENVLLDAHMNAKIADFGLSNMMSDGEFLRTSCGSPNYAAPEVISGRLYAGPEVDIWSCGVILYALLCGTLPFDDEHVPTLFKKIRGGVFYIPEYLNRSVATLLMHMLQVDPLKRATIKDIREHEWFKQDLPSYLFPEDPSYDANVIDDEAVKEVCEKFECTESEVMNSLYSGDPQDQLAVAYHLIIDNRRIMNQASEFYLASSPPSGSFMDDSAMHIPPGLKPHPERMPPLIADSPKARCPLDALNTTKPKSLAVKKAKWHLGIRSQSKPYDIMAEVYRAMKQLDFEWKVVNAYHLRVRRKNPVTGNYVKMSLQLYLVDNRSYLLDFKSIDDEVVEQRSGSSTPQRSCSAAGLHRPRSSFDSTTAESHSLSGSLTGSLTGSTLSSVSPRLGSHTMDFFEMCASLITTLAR
# T2 sequence (O43741 whole entry): as the sequence (O43741 whole entry) above
# T2 sequence (P54619 whole entry): as the sequence (P54619 whole entry) above
# T4 sequence (P54646 whole entry): as the sequence (P54646 whole entry) above
# T4 sequence (O43741 whole entry): as the sequence (O43741 whole entry) above
# T4 sequence (Q9UGI9 whole entry): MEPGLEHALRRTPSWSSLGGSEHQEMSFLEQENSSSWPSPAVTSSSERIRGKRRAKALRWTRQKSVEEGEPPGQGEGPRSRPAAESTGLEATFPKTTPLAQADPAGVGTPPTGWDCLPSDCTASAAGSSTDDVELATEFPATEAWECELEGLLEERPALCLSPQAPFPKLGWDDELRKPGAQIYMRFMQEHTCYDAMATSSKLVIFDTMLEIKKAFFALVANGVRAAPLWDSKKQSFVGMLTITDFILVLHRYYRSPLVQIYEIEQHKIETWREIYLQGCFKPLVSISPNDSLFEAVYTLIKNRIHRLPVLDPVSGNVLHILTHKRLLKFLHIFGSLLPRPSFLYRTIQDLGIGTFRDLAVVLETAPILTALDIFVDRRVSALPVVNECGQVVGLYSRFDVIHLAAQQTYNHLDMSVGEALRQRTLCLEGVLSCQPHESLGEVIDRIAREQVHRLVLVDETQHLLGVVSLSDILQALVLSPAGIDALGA
# T7 sequence (Q13131 whole entry): as the sequence (Q13131 whole entry) above
# T7 sequence (O43741 whole entry): as the sequence (O43741 whole entry) above
# T7 sequence (Q9UGI9 whole entry): as the sequence (Q9UGI9 whole entry) above
# T10 sequence (P54646 whole entry): as the sequence (P54646 whole entry) above
# T10 sequence (O43741 whole entry): as the sequence (O43741 whole entry) above
# T10 sequence (Q9UGI9 whole entry): as the sequence (Q9UGI9 whole entry) above
# T9 sequence (P54646 whole entry): as the sequence (P54646 whole entry) above
# T9 sequence (O43741 whole entry): as the sequence (O43741 whole entry) above
# T9 sequence (P54619 whole entry): as the sequence (P54619 whole entry) above
# T8 sequence (P54646 whole entry): as the sequence (P54646 whole entry) above
# T8 sequence (Q9Y478 whole entry): as the sequence (Q9Y478 whole entry) above
# T8 sequence (P54619 whole entry): as the sequence (P54619 whole entry) above
# T6 sequence (Q13131 whole entry): as the sequence (Q13131 whole entry) above
# T6 sequence (O43741 whole entry): as the sequence (O43741 whole entry) above
# T6 sequence (P54619 whole entry): as the sequence (P54619 whole entry) above
# T5 sequence (Q13131 whole entry): as the sequence (Q13131 whole entry) above
# T5 sequence (Q9Y478 whole entry): as the sequence (Q9Y478 whole entry) above
# T5 sequence (P54619 whole entry): as the sequence (P54619 whole entry) above
# T11 sequence (Q13131 18-293): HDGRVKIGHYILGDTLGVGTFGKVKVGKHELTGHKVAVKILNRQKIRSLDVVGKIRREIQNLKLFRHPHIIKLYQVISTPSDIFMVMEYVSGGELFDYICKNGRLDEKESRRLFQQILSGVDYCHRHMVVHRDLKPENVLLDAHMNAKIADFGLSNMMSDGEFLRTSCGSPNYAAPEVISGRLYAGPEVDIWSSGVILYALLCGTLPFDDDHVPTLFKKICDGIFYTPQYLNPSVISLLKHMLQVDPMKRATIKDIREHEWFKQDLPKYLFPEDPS
# T12 sequence (P54646 7-282): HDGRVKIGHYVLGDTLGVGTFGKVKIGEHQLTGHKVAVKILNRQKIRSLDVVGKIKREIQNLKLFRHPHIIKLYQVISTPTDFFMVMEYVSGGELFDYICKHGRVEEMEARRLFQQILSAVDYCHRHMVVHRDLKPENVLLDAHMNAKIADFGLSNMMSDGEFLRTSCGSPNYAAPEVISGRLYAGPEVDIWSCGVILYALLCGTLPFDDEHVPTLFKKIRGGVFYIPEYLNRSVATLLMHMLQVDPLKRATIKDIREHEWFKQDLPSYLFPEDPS
compound,measurement,setting,value
Nc1ncnc2c1ncn2[C@@H]1O[C@H](COP(=O)(O)OP(=O)(O)OP(=O)(O)O)[C@@H](O)[C@H]1O [ATP],Kd,BAP-tagged AMPK α1β1γ1; [11],300 ± 10 µM
same,Kd,BAP-tagged AMPK α1β1γ1; [12],130 ± 1 µM
same,Kd,BAP-tagged AMPK α1β1γ1; [13],1.35 ± 0.02 µM
same,Kd,BAP-tagged AMPK α1β1γ1; [14],2260 ± 90 µM
same,Kd,BAP-tagged AMPK α2β2γ1; [11],133 ± 4 µM
same,Kd,BAP-tagged AMPK α2β2γ1; [12],95 ± 1 µM
same,Kd,BAP-tagged AMPK α2β2γ1; [13],0.92 ± 0.03 µM
same,Kd,BAP-tagged AMPK α2β2γ1; [14],2900 ± 200 µM
same,Kd,BAP-tagged AMPK α1β2γ1; [11],400 ± 20 µM
same,Kd,BAP-tagged AMPK α1β2γ1; [12],95 ± 1 µM
same,Kd,BAP-tagged AMPK α1β2γ1; [13],1.1 ± 0.04 µM
same,Kd,BAP-tagged AMPK α1β2γ1; [14],3400 ± 300 µM
same,Kd,BAP-tagged AMPK α2β2γ3; [11],540 ± 20 µM
same,Kd,BAP-tagged AMPK α2β2γ3; [12],277 ± 4 µM
same,Kd,BAP-tagged AMPK α2β2γ3; [13],7.6 ± 0.6 µM
same,Kd,BAP-tagged AMPK α2β2γ3; [14],3500 ± 300 µM
same,Km,AMPK α1β1γ1,26 ± 5.6 µM
same,Km,AMPK α1β2γ1,45.1 ± 5.8 µM
same,Km,AMPK α1β2γ3 [1],333 ± 65 µM
same,Km,AMPK α2β1γ1 [2],31.4 ± 9.3 µM
same,Km,AMPK α2β2γ1 [3],48 ± 5 µM
same,Km,AMPK α2β2γ3 [4],417 ± 39 µM
same,Kd,"full-length, pAMPK; read-out: equilibrium dissociation constant, stronger binding site",18 µM
same,Kd,"full-length, pAMPK; read-out: equilibrium dissociation constant, weaker binding site",230 µM
PP2Aα: Human recombinant protein phosphatase 2Aα catalytic subunit expressed in insect cells,EC50,[5],0.0032 µM
same,EC50,AMPK α1β2γ3 [6],0.441 µM
same,EC50,[7],0.0013 µM
same,EC50,AMPK α2β1γ1 [8],0.04 µM
same,EC50,AMPK α2β2γ1 [9],0.057 µM
same,EC50,AMPK α2β2γ3 [10],0.041 µM
